Tested on: Human colorectal cancer Colo-205 cells
Assay: Pharmacodynamic study on mouse Colo-205 model (subcutaneous xenograft)
Format: in vivo, BALB/c nude mice
Source text: BALB/c nude mice, 6-8 weeks old, weighing 12-14 g, female, provided by Shanghai Lab Animal Research Center (Shanghai Xipuer-Beikai) with an animal certificate No: 2008001682093.
The experiment was started after 3-7 days in the experimental environment when the animals arrived. Animals were housed in IVC (independent air supply system) cages (Four animals per cage) in SPF grade experimental animal facilities. Each cage animal information card contained the number of animals in the cage, sex, strain, receiving date, dosing schedule, experiment number, group and start date of the experiment. All cages, bedding, and drinking water were sterilized before use and were updated twice a week.
4.3 Tumor Cell Inoculation Method
Human colorectal cancer Colo-205 cells (ATCC-CCL-222) were cultured in vitro in monolayer under the conditions of RPMI 1640 medium with 10% fetal bovine serum, 100 U/mL penicillin and 100 μg/mL streptomycin, and 37° C. 5% CO2 incubator. The passage was routinely digested with trypsin-EDTA twice a week. When the cell saturation was up to 80%-90% and reached the requirement, the cells were collected, counted and inoculated. 0.2 mL (5×10^6) Colo-205 cells were subcutaneously inoculated on the right back of each mouse, and mice were randomly grouped and dosed when the average tumor volume reached 163 mm^3.
4.14 mL of lactic acid was added to a large beaker containing 800 mL of deionized water, and the pH was adjusted to 4.0 with 5 N NaOH. Then the volume was fixed to 1,000 mL to obtain 50 mmol/L sodium lactate buffer.
The subcutaneous tumor volume of nude mice was measured 2-3 times a week, and the mice were weighed, and the data were recorded.
4.6 Analysis and Evaluation
Experimental evaluation index: the tumor growth inhibition rate TGI (%) or the relative tumor proliferation rate T/C (%) was used for evaluation, wherein T was the experimental group, and C was the vehicle group.

[1] = Colo-205 model, mesylate, 50 mg/kg PO × 28 days, day 28

SMILES: CCN1CCC(C(C)c2ccc(Nc3ncc(F)c(-c4cc(F)c5nc(C)n(C(C)C)c5c4)n3)nc2)CC1 (single isomer, unassigned) [Example 17, (R or S)—N-(5-(1-(1-ethylpiperidin-4-yl)ethyl)pyridin-2-yl)-5-fluoro-4-(4-fluoro-1-isopropyl-2-methyl-1H-benzo[d]imidazol-6-yl) pyrimidin-2-amine]
- Tumor volume (day 0) (Colo-205 model, baseline at start of dosing, mesylate, 50 mg/kg PO × 28 days): 198 mm^3
- antitumor effect compared with Abemaciclib (in words) (Colo-205 model, same dosage (50 mg/kg PO × 28 days)): better antitumor effect than positive control compound Abemaciclib
- Tumor volume (day 28) (Colo-205 model, mesylate, 50 mg/kg PO × 28 days): 591 mm^3
- T/C relative tumor proliferation rate [1]: 18.2%
- TGI tumor growth inhibition rate [1]: 81.8%
- inhibitory effect on the tumor growth (in words) (Colo-205 nude mouse model, 50 mg/kg, continuous PO administration for 28 days): strong inhibitory effect

From US11179391B2, “Compound with kinase inhibitory activity and preparation method and use thereof” (priority 2017, dated 2021)
